Data on 27 compounds can be found in patent publication US4965283A, “Amino acid esters, process for the preparation thereof and use thereof” (Dr. Willmar Schwabe GmbH & Co., priority 1987, dated 1990).

Structures are written as SMILES. Counter-ions that a name gives are not always drawn. Like-named read-outs stand apart in the source and are kept apart here.

For the assay, the system named is maximum electroshock spasm (MES), extensor spasm in mice. The assay is described as follows: MES test (maximum electroshock; inhibition of extensor spasm). It is filed as in vivo, male mice (NMRI). The note with it: oral; for protective action [%] after 1 hr / protective action [%] after 3 hrs / responders at 50 mg/kg / responders at 100 mg/kg / responders at 25 mg/kg: n = 10; for ED 50 values / ED 50 values (estimated values) / ED50: MES test, 1 hour after administration; for ED 50 values (estimated values): * estimated from several tests with different dosages; for responders at 50 mg/kg / ED50 / responders at 100 mg/kg / responders at 25 mg/kg: Mus musculus, po; for ED50: read-out: ED 50 values. An excerpt:
For the determination of the anticonvulsive/anti-epileptic activity of the substances according to the present invention the method described by E. A. Swinyard et al., J. Pharmacol. exp. Therapeut. 106, 319-330 (1952) and by L. A. Woodbury et al., Arch. int. Pharmacodyn., 92, 97-107 (1952) was used. To male mice (NMRI) with a body weight of 20-25 g via corneal electrodes, an alternating current of 50 Hz and 50 mA is applied for 0.2 sec. (HSE-shock stimulation apparatus; type 207). The maximum electroshock spasm (MES) consists of a tonic extension of the rear extremities, the clonic twitch and loss of consciousness. The activity criterion is taken as being the inhibition of the extensor spasm by the substances according to the present invention. Before the experiments the mice had free access to feed and water. The test substances were administered orally as suspensions in 0.2% agar by stomach tubes; the control animals received adequate volumes of agar. 1 hour and 3 hours after administration the test for protective action against MES was carried out.
As percentage action the percentage proportion of those animals which in the MES test were protected 100% against the extensor spasm is given. 10 animals were used per test.
The ED 50 values were determined according to Lichtfield and Wilcoxon J. Pharmacol. exp. Therapeut. 96, 99 (1949) in each case with 4 to 5 animal groups each of 8-10 animals per dosage stage.

The mark [1] stands for this setting: 50 mg/kg, 1 hr after administration.
Setting [2] is: 50 mg/kg, 3 hrs after administration.
Setting [3] is: 1 h, 50 mg/kg, 1 hr after administration, read-out: protective action [%] after 1 hr.
[4] abbreviates: 3 h, 50 mg/kg, 3 hrs after administration, read-out: protective action [%] after 3 hrs.
[5] abbreviates: 1 h, 100 mg/kg, 1 hr after administration, read-out: protective action [%] after 1 hr.
The mark [6] stands for this setting: 3 h, 100 mg/kg, 3 hrs after administration, read-out: protective action [%] after 3 hrs.
Where [7] appears, read: 100 mg/kg, 1 hr after administration.
Setting [8] is: 100 mg/kg, 3 hrs after administration.

With `COC1=CC(=O)OC1C(OC(=O)CNC(C)=O)c1ccccc1Cl` (single isomer, unassigned; (+)) [Example 150], the “ED 50 values” is on record as 14.4 mg/kg. Moreover, the “protective action [%] after 1 hr” value under setting [1] was found to be 100%. The “protective action [%] after 3 hrs” value under setting [2] turned out to be 100%.

As for `COC1=CC(=O)O[C@H]1[C@H](OC(=O)CCCN)c1ccccc1Cl` (relative stereo) [Example 113, threo-5-[4-aminobutanoyloxy-(2-chlorophenyl)-methyl]-4-methoxy-2(5H)-furanone hydrobromide], the “ED 50 values (estimated values)” value was 25 to 35 mg/kg. In addition, the responders at 50 mg/kg under setting [3] came to 100%. For the same compound, the responders at 50 mg/kg under setting [4] was found to be 50%.

Take `COC1=CC(=O)OC1C(OC(=O)[C@@H](N)CCC(N)=O)c1ccccc1Cl` (single isomer, unassigned) [122 A]: the “ED 50 values (estimated values)” value is 15 to 20 mg/kg. The responders at 50 mg/kg under setting [3] was found to be 100%. For the same compound, the responders at 50 mg/kg under setting [4] worked out at 100%.

For `COC1=CC(=O)OC1C(OC(=O)[C@H](Cc1ccccc1)N=C(C)C)c1ccccc1Cl` (single isomer, unassigned) [121 A], the responders at 50 mg/kg by setting is: under setting [3], 100%; under setting [4], 90%.

In the case of `COC1=CC(=O)O[C@H]1[C@H](OC(=O)CN)c1ccc(Cl)cc1Cl` (relative stereo) [Example 131, threo-5-[2,4-dichlorophenyl-(glycyloxy)-methyl]-4-methoxy-2(5H)-furanone hydrochloride], the ED50 (1 h) was 54.5 mg/kg.

On to `COC1=CC(=O)OC1C(OC(=O)[C@@H](N)c1ccccc1)c1ccccc1Cl` (single isomer, unassigned) [117 B], for which the “protective action [%] after 1 hr” value under setting [1] stood at 90%. For the same compound, the “protective action [%] after 3 hrs” value under setting [2] was found to be 0%. In addition, the “ED 50 values” (60 min) was found to be 25.3 mg/kg.

In the case of `Br.COC1=CC(=O)OC1C(OC(=O)CN)c1ccccc1Cl` (single isomer, unassigned; (+)) [Example 151, (+)-threo-5-[2-chlorophenyl-(glycyloxy)-methyl]-4-methoxy-2(5H)-furanone hydrobromide], the “ED 50 values” is 12.2 mg/kg. Besides, the “protective action [%] after 1 hr” value under setting [1] is 100%. Also, under setting [2], the “protective action [%] after 3 hrs” value is 100%.

Take `COC1=CC(=O)OC1C(OC(=O)[C@@H]1CCCN1C(=O)OCc1ccccc1)c1cc(Cl)ccc1Cl` (single isomer, unassigned) [136 A]: the “ED 50 values (estimated values)” value is 40 to 50 mg/kg. For the same compound, the responders at 50 mg/kg under setting [3] is 60%. Moreover, the responders at 50 mg/kg under setting [4] was 50%.

As to `COC1=CC(=O)O[C@@H]1[C@@H](OC(=O)[C@@H]1CCCN1)c1ccccc1Cl` [104 A], the responders at 50 mg/kg reads like this: under setting [3], 100%; under setting [4], 100%.

Turning to `COC1=CC(=O)OC1C(OC(=O)[C@@H]1CCCN1C(C)=O)c1ccccc1Cl` (single isomer, unassigned) [107 A], the “ED 50 values (estimated values)” value is 10 to 15 mg/kg. For the same compound, the responders at 100 mg/kg under setting [5] was 100%. Moreover, the responders at 100 mg/kg under setting [6] is 60%.

Turning to `COC1=CC(=O)OC1C(OC(=O)[C@@H]1CCCN1)c1ccccc1C` (single isomer, unassigned) [141 A], the “ED 50 values (estimated values)” value was 110 to 120 mg/kg. Besides, the responders at 100 mg/kg under setting [5] was 40%. Under setting [6], the responders at 100 mg/kg was determined as 10%.

Regarding `COC1=CC(=O)O[C@H]1[C@H](OC(=O)C1(N)CCCCC1)c1ccccc1Cl` (relative stereo) [Example 157, threo-5-[1-amino-1-cyclohexylcarbonyloxy-(2-chlorophenyl)-methyl]-4-methoxy-2(5H)-furanone hydrobromide], the responders at 100 mg/kg by setting is: under setting [5], 100%; under setting [6], 40%. Besides, the ED50 (1 h) worked out at 27.5 mg/kg.

As to `COC1=CC(=O)O[C@H]1[C@H](OC(=O)CNC(C)=O)c1ccccc1Cl` (relative stereo) [Example 106, threo-5-[N-acetylglycyloxy-(2-chlorophenyl)-methyl]-4-methoxy-2(5H)-furanone], the responders at 50 mg/kg was determined as 100% under setting [3] and 70% under setting [4]. Further, the ED50 (1 h) is 23.1 mg/kg.

`COC1=CC(=O)O[C@H]1[C@H](OC(=O)CN)c1ccc(Cl)cc1Cl` (relative stereo) [Example 130, threo-5-[2,4-dichlorophenyl-(glycyloxy)-methyl]-4-methoxy-2(5H)-furanone hydrobromide]: the “ED 50 values (estimated values)” value was 40 to 50 mg/kg. For the same compound, the responders at 100 mg/kg under setting [5] came out at 100%. Also, under setting [6], the responders at 100 mg/kg amounted to 100%.

On to `COC1=CC(=O)OC1C(OC(=O)[C@@H]1CCCN1)c1ccccc1F` (single isomer, unassigned) [129 B], for which the “ED 50 values (estimated values)” value is 95 to 105 mg/kg. For the same compound, the “protective action [%] after 1 hr” value under setting [7] was 50%. Also, the “protective action [%] after 3 hrs” value under setting [8] is 0%.

For `COC1=CC(=O)OC1C(OC(=O)CNC(=O)C(C)(C)C)c1ccccc1Cl` (single isomer, unassigned; (+)) [Example 152, (+)-threo-5-[2-chlorophenyl-(N-pivaloylglycyloxy)-methyl]-4-methoxy-2(5H)-furanone], the “ED 50 values” was determined as 16.3 mg/kg. In addition, the “protective action [%] after 1 hr” value under setting [1] is 100%. Moreover, under setting [2], the “protective action [%] after 3 hrs” value is given as 90%.

In the case of `COC1=CC(=O)O[C@H]1[C@H](OC(=O)CN)c1ccccc1` (relative stereo) [Example 105, threo-5-[glycyloxy-(phenyl)-methyl]-4-methoxy-2(5H)-furanone hydrobromide], the responders at 100 mg/kg worked out at 70% under setting [5] and 0% under setting [6]. In addition, the ED50 (1 h) came out at 87.5 mg/kg.

In the case of `COC1=CC(=O)OC1C(OC(=O)[C@@H]1CCCN1)c1ccccc1F` (single isomer, unassigned) [129 A], the “ED 50 values (estimated values)” value was 40 to 50 mg/kg. Under setting [7], the “protective action [%] after 1 hr” value is listed as 100%. Besides, the “protective action [%] after 3 hrs” value under setting [8] was 100%.

For the compound `COC1=CC(=O)OC1C(OC(=O)[C@@H]1CCCN1)c1cc(Cl)ccc1Cl` (single isomer, unassigned) [137 A], the responders at 50 mg/kg under setting [3] stood at 100% and the responders at 50 mg/kg under setting [4] stood at 100%.

Take `COC1=CC(=O)O[C@H]1[C@H](OC(=O)[C@@H]1CCCN1)c1ccccc1Cl` [104 B]: the “protective action [%] after 1 hr” value under setting [7] is on record as 60%. Under setting [8], the “protective action [%] after 3 hrs” value is 0%. In addition, for the setting “60 min”, the “ED 50 values” turned out to be 105 mg/kg.

Take `COC1=CC(=O)O[C@H]1[C@H](OC(=O)C(C)(C)N)c1ccccc1Cl` (relative stereo) [Example 155, threo-5-[2-chlorophenyl-(2-methylalanyloxy)-methyl]-4-methoxy-2(5H)-furanone-hydrobromide]: the “ED 50 values (estimated values)” value was 20 to 30 mg/kg. Moreover, under “1 h, 1 hr after administration, read-out: protective action [%] after 1 hr”, the responders at 25 mg/kg is 50%. Moreover, for the setting “3 h, 3 hrs after administration, read-out: protective action [%] after 3 hrs”, the responders at 25 mg/kg was 10%.

Regarding `COC1=CC(=O)OC1C(OC(=O)[C@@H](N)CCC(=O)O)c1ccccc1Cl` (single isomer, unassigned) [123 A], the responders at 50 mg/kg runs as follows: under setting [3], 70%; under setting [4], 20%.

`COC1=CC(=O)OC1C(OC(=O)[C@@H](N)c1ccccc1)c1ccccc1` (single isomer, unassigned) [108 A]: the “ED 50 values (estimated values)” value was 70 to 80 mg/kg. Also, the responders at 100 mg/kg under setting [5] was determined as 90%. Further, the responders at 100 mg/kg under setting [6] came to 0%.

As to `COC1=CC(=O)O[C@H]1[C@H](OC(=O)CCCN)c1ccccc1Cl` (relative stereo) [Example 114, threo-5-[4-aminobutanoyloxy-(2-chlorophenyl)-methyl]-4-methoxy-2(5H)-furanone hydrochloride], the “protective action [%] after 3 hrs” value (50 mg/kg, 3 hrs after administration, hydrochloride) is 30%. The ED50 (1 h) turned out to be 40 mg/kg.

Regarding `COC1=CC(=O)OC1C(OC(=O)[C@@H]1CCCN1)c1ccccc1Br` (single isomer, unassigned) [127 A], the responders at 50 mg/kg was 100% under setting [3] and 100% under setting [4].

Regarding `Br.COC1=CC(=O)OC1C(OC(=O)CN)c1ccccc1Cl` (single isomer, unassigned; (-)) [Example 153], the “protective action [%] after 1 hr” value under setting [7] is reported as 40%. Also, under setting [8], the “protective action [%] after 3 hrs” value is 0%.

`COC1=CC(=O)OC1C(OC(=O)[C@H](CCSC)NC(C)=O)c1ccccc1Cl` (single isomer, unassigned) [124 A]: the “ED 50 values (estimated values)” value was 25 to 35 mg/kg. Moreover, the responders at 100 mg/kg under setting [5] was 100%. Under setting [6], the responders at 100 mg/kg stood at 20%.
